{
  "source": "paper PMC5723705",
  "about": "“Identification of an antibody‐based immunoassay for measuring direct target binding of RIPK1 inhibitors in cells and tissues” (Pharmacology Research & Perspectives, 2017)",
  "key": {"[1]": {"tested_on": "RIPK1 (Receptor-interacting serine/threonine-protein kinase 1)", "assay": "TEAR1 target engagement immunoassay in monkey whole blood and tissues after IV dosing", "parameters": "species or system Macaca fascicularis"}, "[2]": {"biological_target": "T1, RIPK1 (Receptor-interacting serine/threonine-protein kinase 1) (Homo sapiens, UniProt Q13546)", "T1 sequence (Q13546 1-671)": "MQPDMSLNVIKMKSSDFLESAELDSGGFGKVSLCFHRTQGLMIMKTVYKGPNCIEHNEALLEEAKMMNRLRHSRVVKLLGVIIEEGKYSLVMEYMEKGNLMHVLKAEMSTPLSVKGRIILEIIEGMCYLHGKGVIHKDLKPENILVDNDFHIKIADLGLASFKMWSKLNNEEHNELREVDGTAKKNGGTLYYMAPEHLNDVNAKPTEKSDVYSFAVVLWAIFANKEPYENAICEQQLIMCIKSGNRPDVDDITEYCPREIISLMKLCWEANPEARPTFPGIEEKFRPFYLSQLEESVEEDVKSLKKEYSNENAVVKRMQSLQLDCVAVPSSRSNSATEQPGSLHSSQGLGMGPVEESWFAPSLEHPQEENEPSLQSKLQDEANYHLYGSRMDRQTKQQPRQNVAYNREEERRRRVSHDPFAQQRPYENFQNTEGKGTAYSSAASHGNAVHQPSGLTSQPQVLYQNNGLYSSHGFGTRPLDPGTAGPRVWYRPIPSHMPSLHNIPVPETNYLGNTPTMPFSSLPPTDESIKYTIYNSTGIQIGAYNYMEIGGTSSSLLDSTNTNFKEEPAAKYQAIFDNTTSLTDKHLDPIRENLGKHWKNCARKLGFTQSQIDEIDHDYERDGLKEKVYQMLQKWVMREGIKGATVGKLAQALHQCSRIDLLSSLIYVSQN", "assay": "TEAR1 target engagement immunoassay (FREE-RIPK1/TOTAL-RIPK1) in HT29 cells", "assay_type": "cell-based"}},
  "data": [
    {"substance": "GSK3011253 [GSK'253]", "values": [
      {"measurement": "IC50", "setting": "[1]", "result": 3.1, "unit": "ng/mL"},
      {"measurement": "IC50", "setting": "[2]", "result": 0.5, "unit": "nM"}
    ]}
  ]
}
